Test results published in US10130598B2, “Methods and compositions for administration of 3-halopyruvate and related compounds for the treatment of cancer” (The Johns Hopkins University, priority 2008, dated 2018).
Like-named read-outs stand apart in the source and are kept apart here.

Key:
genomic DNA = assay: 14C-3-BrPA incorporation into genomic DNA (scintillation counting); assay type: cell-based; details: SK-Hep and Hep3B cells exposed to 14C-3-BrPA
Procedure: Many antineoplastic chemotherapeutics are alkylating agents that exert their effect by binding to DNA and interfering with cell replication. […] Since 3-BrPA has been reported to be an alkylating agent, it was determined whether 3-BrPA is incorporated into the DNA of 3-BrPA treated cells. To accomplish this, genomic DNA was isolated from SK-Hep and Hep3B cells that had been exposed to ^14C-3-BrPA.

[1] = test system: Hep3B, HepG2, SK-Hep1 and VX2 cells; assay: Active caspase-3 western blot; assay type: cell-based; details: all four cell lines; 100, 150, 200 μM
Procedure: The apoptosis of 3-BrPA treated cells was evaluated using Annexin V staining and the formation of active caspase-3. Cells treated with 3-BrPA were stained with anti-Annexin V and analyzed by flow cytometry as well as fluorescent microscopy. Flow cytometry was performed using a Becton-Dickinson FACSCalibur. The gating was done based on unstained control cells, Annexin V—PE stained and 7-AAD stained control cells. For fluorescent microscopy, Annexin V staining was performed using Annexin V staining Microscopy kit (BD Biosciences, USA) according to the protocol recommended by the manufacturer. In brief, cells grown in chambered slides were treated with either 3BrPA or the vehicle, washed once with ice-cold PBS followed by two washes with binding buffer, at the end of the treatment period. Cells were then incubated with the FITC-conjugated Annexin V fluorescent antibody for 15 min followed by a gentle wash. The cells were kept in binding buffer and images were observed captured using a Zeiss Axiovert 200 Microscope (Carl Zeiss Microimaging Inc., USA). Active caspase-3, an apoptotic marker, was identified by western blot analysis. Lysates prepared from equal numbers of cells treated with different concentrations of 3BrPA were subjected to SDS-PAGE electrophoresis and immunoblotting against active (cleaved) caspase-3. […]

H1299 cells = assay: Trypan blue viability assay, H1299; assay type: cell-based
Description: (§1) The non-small cell lung cancer (NSCLC) cell line NCI-H1299, the breast cancer cell lines MCF7 and MDA MB 231 and the Hep3B, Hep2G and SK-Hep1 cells were obtained from the American Type Culture Collection (ATCC) (Manassas, Va., USA) and maintained as a monolayer culture in Eagle's minimum essential medium (MEM, Invitrogen, Gaithersburg, Md., USA) supplemented with 10% fetal bovine serum at 37 C and 5% CO2. All treatments were done in triplicate samples on 96-well plates. VX2 cells were maintained as described in Geschwind et al., Cancer Res., 62:3909-3913 (2002).
(§2) The efficacy of 3-BrPA in the treatment of lung cancer cells was tested using the non-small cell lung cancer (NSCLC) cell line NCI-H1299. As described above, the cell line was grown as a monolayer in MEM (Invitrogen) supplemented with 10% fetal bovine serum (HyClone) at 37 C.° and 5% CO2, and all treatments were done in triplicate samples on 96-well plates.
(§3) The EC50 of 3-BrPA for H1299 cells lies between 0.08 and 0.09 mM. […] Therefore, considering that oral administration of 3-BrPA buffered in NaHCO3 is effective in prolonging survival in liver cancer models (Example 2), it is probable that oral administration of 3-BrPA buffered in NaHCO3 would also be effective in the treatment of lung cancer.

Vx-2 cell line = assay: ATP dependent luminescence cell viability assay, VX2; assay type: cell-based; details: for IC50: Vx-2, read-out: IC50 (ATP depletion)
Description: as §1
Cytotoxicity of 3-BrPA was evaluated by the IC50 values, representing the drug concentration which depletes ATP by 50% compared to non-treated control. On day 1, cells were seeded into 96-well plates in a volume of 100 μl per well. On day 2, the medium of all wells was removed and an aliquot of 100 μl of media having serial dilutions of 3-BrPA in PBS, NaHCO3, NaOH, KOH and KHCO3 was added to the appropriate well. […] Briefly, 100 μl assay reagent was added to each well and mixed at room temperature for 2 min to develop luminescent signal. The luminescence intensity (cps) from each sample was determined with a spectrometer (Model Victor III, Perkin Elmer, Mass.). Relative luminescence was calculated in proportion to the numbers of living cells per sample well. The results are expressed as the mean of three independent experiments. The intracellular ATP contents were calculated and normalized by equal cell number and expressed as the percentage of the control cells. The IC50 values were estimated graphically from dose-response plots.
The efficacy of 3-BrPA in the treatment of liver cancer cells was further tested using the cancer cell lines Hep3B, HepG2, SK-Hep1 and VX2. […]
The effects on cell viability and cellular metabolism of 3-BrPA on Hep3B and VX2 cells were examined using luminescence ATP assays, as described above. […]

[2] = General toxicology studies, oral NaHCO3-buffered 3-BrPA; assay type: in vivo, nude mice; details: 100 and 200 mg/kg/day oral, single dose to 3-months of daily dosing
Procedure: General toxicology studies were conducted on nude mice that were orally administered NaHCO3-buffered 3-BrPA at doses of 0, 100 and 200 mg/kg/day. The duration of exposure in this study ranged from a single dose to 3-months of daily dosing. […] 3-BrPA treatment had no effect on body weight.

MCF7 cells = assay: Trypan blue viability assay, MCF7; assay type: cell-based
Description: as §1
as §2, with “breast” for “lung”, “cancer” for “non-small”, “lines MCF7 and MDA MB 231.” for “lung cancer (NSCLC) cell line NCI-H1299.”, “lines were” for “line was”, “monolayers” for “a monolayer”
as §3, with “MCF7” for “H1299”, “0.05” for “0.08”, “0.06” for “0.09”, “breast” for “lung”

O=C(O)C(=O)CBr [3-BrPA, 3-bromopyruvate]
14C incorporation into genomic DNA (genomic DNA): no evidence of ^14C incorporation | Caspase-3 activation (immunoblot) [1]: dose dependent increase | Cells died (H1299 cells; 0.1 mM, within 3 hours): more than 80% | Cell death (H1299 cells; 0.2 mM): 100% | EC50 compared with EC50 of 3-BrPA for VX2 liver cancer cells (H1299 cells; H1299): lower | Viability (trypan blue) (H1299 cells; H1299): dose and time dependent decrease in viability | Level of ATP (Vx-2 cell line; VX2, 3, 24, 48 hours): dose and time dependent decrease | IC50 (Vx-2 cell line; at 48 hours): 50 µM | IC50 (Vx-2 cell line; treatment time not given): 60 µM | Clinical symptoms [2]: did not exhibit any treatment related clinical symptoms | Effect on body weight [2]: no effect | Mortality [2]: no mortalities | Organ weights, gross pathology and histopathology [2]: did not show any treatment-related changes | Cells died (MCF7 cells; 0.05 mM, within 3 hours): more than 40% | Cell death (MCF7 cells; 0.15 mM): 100% | EC50 compared with EC50 of 3-BrPA for VX2 liver cancer cells (MCF7 cells; MCF7): lower | Viability (trypan blue) (MCF7 cells; MCF7): dose and time dependent decrease in viability
